Experimental findings from patent US5208344A, “Naphthalenepropionic acid derivatives as anti-inflammatory/antiallergic agents” (American Home Products Corporation, priority 1991, dated 1993) are described below.

Assay [1] deals with inflammatory mediator release. The assay is described as follows: reverse passive Arthus pleurisy assay, inflammatory mediator release. Format: in vivo, rat. How it is done:
The compounds of the invention are further tested in the reverse passive Arthus pleurisy assay to evaluate their effectiveness in inflammatory mediator release and/or the fluid and cellular phases of an inflammatory response.
A reverse passive Arthus reaction is induced in the pleural cavity of male Lewis rats (150-200 g; fasted overnight prior to use) by the intravenous administration of bovine serum albumin (BSA; 4 mg/0.2 ml) followed 30 minutes later by the injection of rabbit anti-BSA (1 mg/0.2 ml; lyophilized IgG fraction; Organon Teknika, West Chester, PA) into the right pleural space under halothane anesthesia. […] Animals are sacrificed at either the time of peak eicosanoid production (i.e. 5 minutes after anti-BSA for immunoreactive TxB2, 10 minutes for immunoreactive LTB4, 20 minutes for immunoreactive LTC4) or at the time of peak neutrophil infiltration (4 hours after anti-BSA) by CO2 inhalation. The pleural cavity is then exposed, the fluid exudate removed by gentle vacuum aspiration and the volume of exudate is recorded. For the determination of cellular infiltration, the pleural cavity is rinsed with 3 ml of 0.1% EDTA in sterile saline, and the recovered wash is pooled with the exudate. Cell number is determined on a model ZBI Coulter counter. For determination of eicosanoid production, undiluted pleural exudate is microfuged and the supernatant is extracted with ethanol (8-10 times volume). Extracts are either stored at -20° C., or are evaporated to dryness under a stream of N2 and reconstituted in radioimmunoassay (RIA) buffer.
Eicosanoids are quantitated by RIA according to the procedure specified by the RIA kit manufacturer (Advanced Magnetics, Cambridge, MA). Briefly, 100 μl of ^3 H-labeled eicosanoid and 100 μl of specific antibody are sequentially added to 100 μl of extracted pleural exudate in BGG-phosphate buffer which contains 0.01 M phosphate, 0.1% bovine gamma globulin and 0.1% sodium azide at pH 7.0. Antibody-bound eicosanoid is separated form unbound eicosanoid by the addition of 750 μl of dextran (0.4%)-coated charcoal (0.4% Norit A) containing 0.1% sodium azide. The mixture is centrifuged at 2000 RPM at 5° C. for 15 minutes to pellet the charcoal and adsorbed unbound eicosanoid. Antibody-bound labeled eicosanoid is quantitated by counting in a liquid scintillation counter, and is correlated to concentration by a standard curve.
Inflammatory cells are expressed as 10^6 cells/ml, pleural exudate is expressed as ml of fluid, and the amount of eicosanoids in the pleural cavity is expressed as ng/ml of exudate. Mean±S.E.M. is determined for each group. Percent inhibition (% I) of cell number, exudate volume and eicosanoid production is calculated for vehicle-treated control groups, and the responses in drug-treated rats are then expressed as the mean $ I of control.

Assay [2] has as its target T1, 5-lipoxygenase (Homo sapiens, UniProt P09917).
T1 construct: Blood is obtained in 50-100 ml quantities from male donors; endogenous in cells; host or cells: human whole blood (leukocytes) from male donors
T1 sequence (P09917 1-674): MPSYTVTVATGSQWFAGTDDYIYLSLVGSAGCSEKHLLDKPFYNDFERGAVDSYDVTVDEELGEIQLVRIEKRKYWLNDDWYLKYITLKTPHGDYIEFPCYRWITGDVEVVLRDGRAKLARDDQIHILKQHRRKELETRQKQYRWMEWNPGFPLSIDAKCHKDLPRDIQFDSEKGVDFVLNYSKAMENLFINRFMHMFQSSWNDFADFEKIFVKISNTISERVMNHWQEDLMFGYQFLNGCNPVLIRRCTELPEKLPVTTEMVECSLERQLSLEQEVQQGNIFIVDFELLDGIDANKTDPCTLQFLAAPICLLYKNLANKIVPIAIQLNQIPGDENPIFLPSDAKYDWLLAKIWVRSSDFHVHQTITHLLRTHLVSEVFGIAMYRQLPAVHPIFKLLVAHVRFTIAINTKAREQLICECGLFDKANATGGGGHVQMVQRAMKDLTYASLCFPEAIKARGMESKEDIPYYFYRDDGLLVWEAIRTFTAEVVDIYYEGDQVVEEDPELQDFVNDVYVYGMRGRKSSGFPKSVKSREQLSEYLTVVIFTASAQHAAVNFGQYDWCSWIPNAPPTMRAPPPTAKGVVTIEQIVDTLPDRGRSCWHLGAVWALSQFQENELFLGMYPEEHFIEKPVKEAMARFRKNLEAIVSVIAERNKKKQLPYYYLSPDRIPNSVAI
The assay is described as follows: inhibition of 5-lipoxygenase in human whole blood (LTB4). Type of assay: cell-based. The conditions noted are these: human whole blood. How it is done:
The assay of this Example measures the ability of the compounds tested to inhibit 5-lipxygenase in human whole blood.
Blood is obtained in 50-100 ml quantities from male donors. White blood cell counts and differentials are made. Two ml of blood are placed in a 15 ml polypropylene test tube. Compounds are solubilized in dimethylsulfoxide and diluted 1:10 in 10% bovine serum albumin in phosphate buffered saline, pH 7.4 resulting in a final dimethylsulfoxide concentration of 0.1% in the blood. Then, compounds are added to the blood in a shaking water bath at 37° C. for 10 minutes prior to the addition of 30 μM calcium ionophore (A23187; Sigma). After ionophore administration, whole blood samples are mixed and incubated for 20 minutes at 37° C. in a shaking water bath. Incubation is terminated by placing samples in an ice bath and immediately adding ethylene glycol-bis-(β-aminoethyl ether)-N,N,N',N'-tetraacetic acid (10 mM). Samples are mixed and centrifuged at 1200×g for 15 minutes at 4° C. Preparation of samples for evaluation by RIA or ELISA is carried out by the following protocol. Plasma is removed from sample tubes, placed in 15 ml polypropylene test tubes containing 8 ml methanol, and then vortexed to precipitate protein. Samples are stored at -70° C. overnight. The next day, samples are centrifuged at 200×g for 15 minutes at 4° C. to pellet the precipitate. Samples are dried in a Savant speed vac concentrator, reconstituted to original volume with ice cold RIA or ELISA buffer, and stored at -70° C. until assayed. The assay for eicosanoids (LTB4, TxB2, and PGE2) is performed as described by the manufacturer of the [^3 H]-RIA kit or ELISA kit (LTB4 -Amersham, TxB2 and PGE2 - Caymen Chemical).
The total eicosanoid level in 2 ml of blood is calculated and reported as ng/10^6 neutrophils. Significance is determined by a one-way analysis of variance with least significant difference (LSD) comparisons to control (p≤0.05) and IC50 's (μM) are determined by regression analysis (Finney, 1978). Drug effects are expressed as percent change form control values.
Compounds tested in vitro are solubilized in dimethylsulfoxide and diluted 1:10 in 10% bovine serum albumin in phosphate buffer saline resulting in a final dimethylsulfoxide concentration of 0.1% in the blood.

Assay [3] has as its target T2, 5-lipoxygenase (Rattus norvegicus, UniProt P12527).
T2 construct: Peritoneal PMN are obtained from female Wistar rats (150-250 g); endogenous in cells; host or cells: rat glycogen-elicited peritoneal polymorphonuclear leukocytes, intact
T2 sequence (P12527 1-673): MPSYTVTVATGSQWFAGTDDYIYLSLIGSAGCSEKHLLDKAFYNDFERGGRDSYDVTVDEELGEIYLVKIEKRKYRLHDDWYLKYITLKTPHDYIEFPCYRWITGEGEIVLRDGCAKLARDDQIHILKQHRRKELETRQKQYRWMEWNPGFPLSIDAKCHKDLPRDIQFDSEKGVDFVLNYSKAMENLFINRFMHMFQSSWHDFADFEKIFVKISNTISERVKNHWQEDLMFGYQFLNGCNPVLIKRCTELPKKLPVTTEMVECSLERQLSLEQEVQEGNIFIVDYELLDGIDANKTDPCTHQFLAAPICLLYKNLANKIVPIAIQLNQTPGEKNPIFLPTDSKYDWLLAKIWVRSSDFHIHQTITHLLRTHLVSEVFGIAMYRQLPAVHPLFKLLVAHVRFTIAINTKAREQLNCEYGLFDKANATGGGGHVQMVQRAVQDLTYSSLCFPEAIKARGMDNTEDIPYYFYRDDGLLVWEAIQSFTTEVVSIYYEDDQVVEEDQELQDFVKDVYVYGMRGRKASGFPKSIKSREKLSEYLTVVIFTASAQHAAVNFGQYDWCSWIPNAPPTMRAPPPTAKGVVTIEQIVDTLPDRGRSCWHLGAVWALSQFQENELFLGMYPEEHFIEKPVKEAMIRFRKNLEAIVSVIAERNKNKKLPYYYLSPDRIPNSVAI
The assay is described as follows: inhibition of 5-HETE synthesis by rat glycogen elicited polymorphonuclear leukocytes. The note with it: rat PMN, read-out: % Inhibition of 5-LO (as 5-HETE); for inhibition at 10 µM: negative = potentiation of 5-HETE synthesis. Format: cell-based. How it is done:
The assay of this Example measures the ability of the compounds of the invention to inhibit the synthesis of 5-HETE by rat glycogen elicited polymorphonuclear leukocytes.
(§1) Peritoneal PMN are obtained from female Wistar rats (150-250 g) that received an i.p. injection of 6% glycogen (10 ml). After 24 hours, rats are killed by CO2 asphysiation and peritoneal cells are harvested by peritoneal lavage using Ca^++ and MG^++ free Hanks' balanced salt solution (HBSS). The peritoneal exudate is centrifuged at 400 g for 10 minutes. After centrifugation, the lavaged fluid is removed and the cell pellet is resuspended in HBSS containing Ca^++ and MG^++ and 10 mM L-cysteine at a concentration of 2×10^7 cells/ml. To 1 ml portions of cell suspension, test drugs or vehicle are added and incubated at 37° C. for 10 minutes. Following this preincubation, the calcium ionophore (10 μM), a23187, is added together with 0.5 μM [14 C] arachidonic acid and further incubated for 10 minutes. The reaction is stopped by the addition of ice cold water (3 ml) and acidifying to pH 3.5. Lipoxygenase products are then extracted twice into diethyl ether. The pooled ether extracts are evaporated to dryness under nitrogen and the residue is redissolved in a small volume of methanol and spotted on aluminum backed pre-coated thin layer chromatographic plates. The samples are then cochromatographed with authentic reference 5-HETE in the solvent system - hexane: ether: acetic acid (50:50:3). After chromatography, the areas associated with 5-HETE standard are identified by autoradiography, cut out and quantitated by liquid scintillation.

Another assay relates to cyclooxygenase. Kind of assay: inhibition of synthesis of cyclooxygenase products TxB2 and PGE2 (rat polymorphonuclear leukocytes). Format: cell-based. The note with it: rat PMN, negative = potentiation of PGE2 synthesis. How it is done:
as §1
However, in order to determine cyclooxygenase activity, the samples are cochromatographed with authentic reference TxB2 and PGE2 in the solvent system ethyl acetate: formic acid (80:1) and the upper phase of ethyl acetate: isooctane: acetic acid: water (110:50:20:100). After chromatography, the areas associated with the TxB2 and PGE2 standards are identified by autoradiography, cut out and quantitated by liquid scintillation techniques.

A word on the ED50: it is the dose that gives a 50% effect, or the effect in half of the subjects. Take `O=C(O)Cc1ccccc1Nc1c(Cl)cccc1Cl` [Diclofenac]: the “% Inh LTB4” value in assay [1] (10 mg/kg p.o., rat) is 0%. In addition, the ED50 in assay [1] (Rattus norvegicus, po, 5 min, read-out: ED50 TxB2) stood at 6 mg/kg.

Broadly, the inhibition is the percentage by which the read-out fell short of the control. In the case of `CONC(=O)C(C)c1ccc2cc(OCc3ccc4ccccc4n3)ccc2c1` (stereo not drawn) [Example 30, N-methoxy-α-methyl-6-(2-quinolinylmethoxy)-2-naphthaleneacetamide], at 50 µM the inhibition on 5-lipoxygenase [2] was 13%. In addition, the inhibition at 10 µM at 5-lipoxygenase [3] came out at 92%. Further, the “% Inhibition of CO (as PGE2)” value in the assay with cyclooxygenase (10 μM) is -27%.

Turning to `Cc1ccc(S(=O)(=O)NC(=O)C(C)c2ccc3cc(OCc4ccc5ccccc5n4)ccc3c2)cc1` (stereo not drawn) [Example 25, α-Methyl-N-[(4-methylphenyl)sulfonyl]-6-(2-quinolinylmethoxy)-2-naphthaleneacetamide], on 5-lipoxygenase [2] (25 μM), 25 µM produced 45% inhibition. The inhibition at 10 µM on 5-lipoxygenase [3] came to 100%. The “% Inhibition of CO (as PGE2)” value in the assay with cyclooxygenase (10 μM) is recorded as -103%.

As to `CC(C(=O)N(C)O)c1ccc2cc(OCc3ccc4ccccc4n3)ccc2c1` (stereo not drawn) [Example 23, N-Hydroxy-α-N-dimethyl-6-(2-quinolinylmethoxy)-2-naphthaleneacetamidedihydrate], on 5-lipoxygenase [2] (5 μM, read-out: % Inhibition of LTB4), the inhibition at 5 µM turned out to be 45%. The inhibition at 10 µM at 5-lipoxygenase [3] came out at 75%. In addition, in the assay with cyclooxygenase (10 μM), the “% Inhibition of CO (as PGE2)” value was found to be 17%.

Regarding `C[C@H](C=O)c1ccc2cc(OCc3ccc4ccccc4n3)ccc2c1` [Example 27, (S)-α-methyl-6-(2-quinolinylmethoxy)-2-naphthaleneacetaldehyde], the inhibition at 10 µM on 5-lipoxygenase [3] was 100%. Further, the “% Inhibition of CO (as PGE2)” value in the assay on cyclooxygenase (10 μM) is recorded as -62%.

Turning to `CC(C)=CCOc1ccc2cc(C(C)C(=O)O)ccc2c1` (stereo not drawn) [Example 14, α-Methyl-6-(3-methyl-2-butenoxy)-2-naphthaleneacetic acid], at 5-lipoxygenase [3], the inhibition at 10 µM came to 81%. The “% Inhibition of CO (as PGE2)” value with cyclooxygenase (10 μM) is on record as -15%.

Regarding `C[C@@H](C(=O)O)c1ccc2cc(OCc3ccc4ccccc4n3)ccc2c1` [Example 8, R-(-)-α-Methyl-6-(2-quinolinylmethoxy)-2-naphthaleneacetic acid], the inhibition at 0.1 µM on 5-lipoxygenase [3] (0.1 μM) turned out to be 33%. Also, the “% Inhibition of CO (as PGE2)” value with cyclooxygenase (0.1 μM) is -7%.

Regarding `CC(C(=O)O)c1ccc2cc(OCc3ccc4ccccc4c3)ccc2c1` (stereo not drawn) [Example 6, α-Methyl-6-(2-naphthalenylmethoxy)-2-naphthaleneacetic acid], the inhibition at 10 µM at 5-lipoxygenase [3] worked out at 100%. Moreover, the “% Inhibition of CO (as PGE2)” value in the assay on cyclooxygenase (10 μM) is listed as -15%.

Turning to `COC(=O)[C@@H](C)c1ccc2cc(OCc3ccc4ccccc4n3)ccc2c1` [Example 29, (S)α-methyl-6-(2-quinolinylmethoxy)-2-naphthaleneacetic acid methyl ester], at 50 µM the inhibition on 5-lipoxygenase [2] was 24%. Besides, the inhibition at 10 µM at 5-lipoxygenase [3] amounted to 91%. Moreover, the “% Inhibition of CO (as PGE2)” value in the assay on cyclooxygenase (10 μM) is recorded as -17%.

Take `C[C@H](CO)c1ccc2cc(OCc3ccc4ccccc4n3)ccc2c1` [Example 26, (S)-β-methyl-6-(2-quinolinylmethoxy)-2-naphthalene ethanol]: the inhibition at 100 µM at 5-lipoxygenase [2] (100 μM) was 8%. For the same compound, the inhibition at 10 µM at 5-lipoxygenase [3] worked out at 97%. The “% Inhibition of CO (as PGE2)” value in the assay on cyclooxygenase (10 μM) was 5%.
